Data on 14 compounds can be found in patent publication US11478467B2 (priority 2017, dated 2022).

Where a name gives a salt, the structure may show the parent alone. Read-outs that look alike come from different tables or passages of the source.

In series [1] the target is peripheral 5-HT2A receptors (Rattus norvegicus (Rat), UniProt P14842). Particulars: cited from earlier work; for 5-methoxytryptamine-induced hyperglycemia: pretreatment.
Series [2] concerns the target T1, CYP2D6 (Homo sapiens (Human), UniProt P10635). Particulars: DEX O-demethylation; read-out: estimated mean IC50; cited from earlier work.
For series [3] the following is noted: cited from earlier work.
The nature of series [4]: Inhibition of dextromethorphan metabolism in vivo (dextromethorphan plasma levels after sarpogrelate). Also on record: species or system rat. The settings on record: for Dextromethorphan AUC: dextromethorphan 50 mg/kg oral gavage, AUC 0-6 h, rat plasma. On the procedure: In a separate set of studies, ability of sarpogrelate to inhibit dextromethorphan metabolism in vivo was studied in rats. Adult male Sprague Dawley rats (RjHan:SD) purchased from Janvier Labs (France) were housed in a climate-controlled room under a 12 h light/12 h dark cycle with ad libitum access to food and water. Two-three days prior to blood sampling, rats were provided with a catheter in the jugular vein and, thereafter, rats treated once with Carprofen (5 mg/kg) directly after surgery and catheters were rinsed daily with Heparin (500 IE/ml) (20 μl/rat/day). On the day of the experiment, dextromethorphan (50 mg/kg) was administered by oral gavage, immediately followed by intravenous bolus injection of sarpogrelate (1, 3 or 10 mg/kg; racemate or one of the enantiomers) or vehicle via vascular access port at t=0 h. Blood samples were collected at four time points until 6 hours post dextromethorphan administration. Sample size was 80 μl Li-heparin whole blood/time point, i.e. 40 μl Li-heparin plasma/time point. Whole blood samples were stored on ice until centrifugation (10 min at 3000 g, 4° C.). Plasma was prepared within 45 min after collection, frozen at −20° C. and stored at this temperature until processed for LC-MS analysis.

For a further series, the target named is 5-HT2A receptors (Homo sapiens (Human), UniProt P28223). As to the kind of experiment: 5-HT2A receptor antagonist radioligand binding ([3H]ketanserin). The settings on record: for pKi / Ki: Ki calculated using the Cheng Prusoff equation; for IC50: inhibition of [3H]ketanserin binding, HEK-293 cells expressing human recombinant 5HT2A receptor. On the procedure: HEK-293 cells expressing human recombinant 5HT2A receptor were used in the antagonist radioligand binding studies. […] The inhibition constants (Ki) were calculated using the Cheng Prusoff equation. Both sarpogrelate enantiomers were potent inhibitors of [3H]ketanserin binding (Table 1). M1 enantiomers also potently bind to 5HT2A receptors with the Ki values that are approximately one order of magnitude higher than those of sarpogrelate enantiomers (Table 1). There are no meaningful differences between enantiomers in terms of 5-HT2A receptor binding for sarpogrelate or its main metabolite.
Sequence of 5-HT2A receptors (P28223 whole entry): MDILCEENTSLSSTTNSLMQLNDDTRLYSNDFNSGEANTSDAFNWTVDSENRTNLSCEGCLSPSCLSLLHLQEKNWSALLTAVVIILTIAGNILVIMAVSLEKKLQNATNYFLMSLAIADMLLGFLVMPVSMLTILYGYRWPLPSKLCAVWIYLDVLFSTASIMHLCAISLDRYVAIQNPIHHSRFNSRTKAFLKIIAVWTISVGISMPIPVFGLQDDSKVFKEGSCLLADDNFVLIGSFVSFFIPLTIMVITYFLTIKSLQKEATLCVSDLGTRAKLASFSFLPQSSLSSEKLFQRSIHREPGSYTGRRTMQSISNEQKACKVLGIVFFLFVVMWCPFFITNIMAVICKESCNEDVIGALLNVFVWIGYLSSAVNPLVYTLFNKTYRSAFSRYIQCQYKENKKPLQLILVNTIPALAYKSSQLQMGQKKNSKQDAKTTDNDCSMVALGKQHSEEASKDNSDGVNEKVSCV
5HT2a ASSAY: Evaluation of the affinity of compounds for the human 5-HT2A receptor in transfected HEK-293 cells determined in a radioligand binding assay. Cell membrane homogenates (30-50 μg protein) were incubated 15 min at 37° C. with 0.5 nM [3H]ketanserin in the absence or presence of the test compound in a buffer containing 50 mM Tris-HCl (pH 7.4). Nonspecific binding was determined in the presence of 1 μM ketanserin. Following incubation, the samples were filtered rapidly under vacuum through glass fiber filters presoaked with 0.3% PEI and rinsed several times with ice-cold 50 mM Tris-HCl using a 96-sample cell harvester. The filters were dried then counted for radioactivity in a scintillation counter using a scintillation cocktail (WO2005013952A1, EP1500391A1[ab1], incorporated in its entirety by reference).

Series [5] concerns the target T1, CYP2D6. As to the kind of experiment: Dextromethorphan O-demethylase activity in human liver microsomes. The class given is biochemical. The settings on record: CYP 2D6 activity; pooled human liver microsomes 0.25 mg/ml; read-out: IC50. As to the method:
Dextromethorphan O-demethylase activity was determined in human liver microsomes. […] The incubation mixtures contained pooled human liver microsomes (final concentrations: 0.25 mg/ml), dextromethorphan, and a NADPH-generating system (1.3 mM NADP+, 3.3 mM glucose 6-phosphate, 3.3 mM MgCl2, and 0.4 U/ml glucose-6-phosphate dehydrogenase). […] All incubations were performed in triplicate, and mean values were used for analysis. […] Both sarpogrelate enantiomers inhibited CYP2D6-mediated dextromethorphan O-demethylation (Table 4).

Series [6] has as its system PCP-induced hyperactivity. As to the kind of experiment: Phencyclidine-induced hyperactivity in rats (sarpogrelate and dextromethorphan). The class given is in vivo, rat. The settings on record: in the presence of dextromethorphan; racemate 3 mg/kg, (−) sarpogrelate 1 or 3 mg/kg i.p.; PCP 5 mg/kg s.c.; 60-120 min.
Series [7] concerns MK-801-induced hyperactivity. As to the kind of experiment: MK-801-induced hyperactivity in rats. Format: in vivo, rat. As to the method:
To confirm the ability of M1 enantiomers to induce effects that are relevant to CNS diseases and that are known for 5-HT2A receptor […], separate groups of female Wistar rats (n=6-9), housed 4-5 per cage under standard colony room conditions with free access to food and water, were pretreated intraperitoneally with varying doses of one of the two M1 enantiomers (0, 3 or 10 mg/kg) followed 15 minutes later by 0.1 mg/kg of MK801 or its vehicle and immediately thereafter placed into computer-controlled motor activity recording chambers (25×35.5×34 cm, L×W×H; transparent Plexiglas walls and a non-transparent plastic floor; enclosed within sound-attenuating ventilated cubicles) for 60 minutes, during which infrared photocell interruptions (5 cm and 14 cm off the floor) were recorded as a measure of motor activity. MK-801 is a phencyclidine-like NMDA receptor channel blocked commonly used in psychopharmacology research on novel therapies including novel antipsychotics.

Series [8] deals with locomotor activity, stereotypy, ataxia. Particulars: DO 15-120 mg/kg, DEX 15-120 mg/kg, PCP 1.25-20 mg/kg; rats; cited from earlier work.
Series [9] has as its system behavioral disturbances in Alzheimer's disease. The settings on record: human, in vivo; cited from earlier work.
Series [10] deals with NPI scores and sleep in patients with AD. The settings on record: human, in vivo; cited from earlier work.
Series [11] deals with T1, CYP2D6. The settings on record: dextromethorphan as substrate; cited from earlier work.
The mark [12] stands for this setting: sarpogrelate dose 1 mg/kg i.v. bolus.
Where [13] appears, read: sarpogrelate dose 3 mg/kg i.v. bolus.
Setting [14] is: sarpogrelate dose 10 mg/kg i.v. bolus.

T1 sequence (P10635 whole entry): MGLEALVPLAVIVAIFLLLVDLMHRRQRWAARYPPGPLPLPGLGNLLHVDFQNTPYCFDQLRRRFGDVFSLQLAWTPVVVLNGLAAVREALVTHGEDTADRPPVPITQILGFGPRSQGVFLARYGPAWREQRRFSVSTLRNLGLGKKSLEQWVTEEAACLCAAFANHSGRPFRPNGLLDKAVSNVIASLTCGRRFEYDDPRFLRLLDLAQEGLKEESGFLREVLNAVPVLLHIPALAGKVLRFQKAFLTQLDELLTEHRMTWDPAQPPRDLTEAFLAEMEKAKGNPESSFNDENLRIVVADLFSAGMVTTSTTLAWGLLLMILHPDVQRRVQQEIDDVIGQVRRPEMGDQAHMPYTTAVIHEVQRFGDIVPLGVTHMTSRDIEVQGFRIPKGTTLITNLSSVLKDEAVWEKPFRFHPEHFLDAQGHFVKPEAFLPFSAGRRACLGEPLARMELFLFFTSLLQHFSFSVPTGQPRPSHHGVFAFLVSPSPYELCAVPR

For the compound `COc1ccc2[nH]cc(CCN)c2c1` [5-methoxytryptamine], the blood glucose entry in [1] (agonist given alone) is recorded as “induced hyperglycemia”.
One may read the IC50 as the concentration needed to halve the response being measured. Regarding `CN1CCN(CC/C=C2/c3ccccc3Sc3ccc(S(=O)(=O)N(C)C)cc32)CC1` [Cisthiothixene], at CYP2D6 [2], the half-maximal inhibitory concentration (IC50) was 137000 nM.
With `COc1cccc(CCc2ccccc2OCC(CN(C)C)OC(=O)CCC(=O)O)c1` (stereo not shown) [Compound 50 hydrochloride, Butanedioic acid, mono(2-(dimethylamino)-1-((2-(2-(3-methoxyphenyl)ethyl)phenoxy)methyl)ethyl) ester, hydrochloride], the mortality entry in [3] (5, 20, 80 and 320 mg/kg/day orally, 52 weeks, beagle dogs) was “No animal died or was sacrificed in extremis”. In series [3] (dog, in vivo, po), the Food consumption entry is “inhibited in females receiving 80 mg/kg/day and over”; the biochemical examination entry was “an increase in potassium in males receiving 80 mg/kg/day and over, and females receiving 320 mg/kg/day”; the “electrocardiographic or ophthalmoscopic examination” value is reported as “no treatment related change”; the “general conditions: emesis” value is “emesis was noted in males and females receiving 320 mg/kg/day and males receiving 80 mg/kg/day”. In addition, in [3] (dog, in vivo, po), the “general conditions: salivation” value was “salivation in females receiving 320 mg/kg/day”, the hematological examination result was “an increase in a platelet count in males receiving 320 mg/kg/day”, the “histopathological examination of the kidney” value is on record as “fatty degeneration was revealed in the cortico-medullary border zone of the kidney in males receiving 320 mg/kg/day” and the urinalysis entry is reported as “an increase in protein was revealed in females receiving 320 mg/kg/day”. Moreover, the water consumption entry in [3] (dog, in vivo, po) is reported as “inhibition of water consumption”.
One may read the pKi as the negative decadic logarithm of the Ki, by convention in mol/L. As for `COc1cccc(CCc2ccccc2OC[C@H](CN(C)C)OC(=O)CCC(=O)O)c1` [Compound 51], the results for the “Fold increase (relative to vehicle) of dextromethorphan AUC” value in series [4] (sarpogrelate dose 1 mg/kg), in series [4] (sarpogrelate dose 3 mg/kg) and in [4] (sarpogrelate dose 10 mg/kg) were 1.4 fold, 3.3 fold and 6.9 fold, respectively. Besides, the figures for the “Dextromethorphan AUC” value in [4] (setting [12]), in series [4] (setting [13]) and in [4] (setting [14]) were 827.0 ng·h/mL, 2021.5 ng·h/mL and 4154.3 ng·h/mL, respectively. The pKi on 5-HT2A receptors was 8.4. The IC50 at 5-HT2A receptors was 7.5 nM; at CYP2D6 [5], 580 nM.
`COc1cccc(CCc2ccccc2OCC(CN(C)C)OC(=O)CCC(=O)O)c1` (stereo not shown) [Compound 52]: the figures for the “Fold increase (relative to vehicle) of dextromethorphan AUC” value in [4] (sarpogrelate dose 1 mg/kg), in series [4] (sarpogrelate dose 3 mg/kg) and in [4] (sarpogrelate dose 10 mg/kg) were 1.5 fold, 2.7 fold and 5.3 fold, respectively. For the same compound, the “Dextromethorphan AUC” value in [4] (setting [12]) turned out to be 921.4 ng·h/mL; in series [4] (setting [13]), 1649.5 ng·h/mL; in series [4] (setting [14]), 3195.9 ng·h/mL. On 5-HT2A receptors, the pKi is listed as 8.2. Besides, the IC50 at 5-HT2A receptors was 11 nM; at CYP2D6 [5] it was 1300 nM. In addition, the “motor hyperactivity in PCP-treated rats” value in series [6] was “inhibited motor hyperactivity in PCP-treated rats”.
As a reminder, the Ki is a dissociation constant, usually derived from enzyme kinetics or from competition with a known ligand. Take `COc1cccc(CCc2ccccc2OC[C@@H](O)CN(C)C)c1` [Compound 147, (S)-1-(dimethylamino)-3-(2-(3-methoxyphenethyl)phenoxy)propan-2-ol]: on 5-HT2A receptors, the Ki was 0.794 nM and the IC50 came to 1.2 nM. Further, the IC50 at CYP2D6 [5] was found to be 38 nM.
Regarding `COc1cccc(CCc2ccccc2OC[C@H](O)CN(C)C)c1` [Compound 148, (R)-1-(dimethylamino)-3-(2-(3-methoxyphenethyl)phenoxy) propan-2-ol], at 5-HT2A receptors, the Ki is 0.631 nM and the IC50 was 1.3 nM. For the same compound, the “hyperactivity induced by MK-801 (motor activity, 60 min)” value in [7] (M1 enantiomer 3 or 10 mg/kg i.p., 15 min before 0.1 mg/kg MK801, female Wistar rats) is recorded as “reduced hyperactivity induced by MK-801”. Also, the IC50 at CYP2D6 [5] came out at 96 nM.
As to `COc1cccc([C@H](O)C2CCN(CCc3ccc(F)cc3)CC2)c1OC` [M-100,907], the “hyperactivity induced by MK-801 (motor activity, 60 min)” value in series [7] (3 mg/kg) is listed as “reduced hyperactivity induced by MK-801”.
`c1ccc(C2(N3CCCCC3)CCCCC2)cc1` [PCP, 1-(1-phenylcyclohexyl)piperidine]: the “behavioral effects given alone (locomotor hyperactivity, stereotypy, ataxia)” value in [8] was “dose-dependent locomotor hyperactivity, stereotypy and ataxia”.
As for `O=C(c1ccc(F)cc1)C1CCN(CCn2c(=O)[nH]c3ccccc3c2=O)CC1` [ketanserin], in series [1], the 5-methoxytryptamine-induced hyperglycemia entry is given as “prevented”.
As for `CC12CC3CC(C)(C1)CC(N)(C3)C2` [memantine, 3,5-dimethyladamantan-1-amine], in series [9], the agitation/aggression entry was “significant improvement in agitation/aggression”, the delusions entry was “significant improvement in delusions”, the disinhibition result was “significant improvement in disinhibition” and the irritability/lability entry is recorded as “superior to control in irritability/lability”. Also, the “nighttime disturbance/diurnal rhythm disturbances” value in series [9] was “significant improvement in nighttime disturbance/diurnal rhythm disturbances”. Further, in series [10], the fragmented sleep entry was “effective in reducing fragmented sleep”, the “scores of NPI item for irritability/lability” value is given as “significantly decreases the scores of NPI item for irritability/lability” and the “scores of NPI subscale for anxiety” value is listed as “significantly decreases in the scores of NPI subscale for anxiety”.
As to `C=C[C@H]1C[N@@]2CC[C@H]1C[C@@H]2[C@@H](O)c1ccnc2ccc(OC)cc12` [quinidine], the “inhibition type (Dixon plots)” value at CYP2D6 [11] is “fit well to all competitive inhibition types”.
For `Cc1nc2n(c(=O)c1CCN1CCC(c3noc4cc(F)ccc34)CC1)CCCC2` [risperidone], on CYP2D6 [2], the IC50 is 39100 nM.
On to `COc1cccc(OC(C)CNC(=N)Cc2cccc(C)c2)c1` (stereo not shown) [xylamidine], for which, in [1], the 5-methoxytryptamine-induced hyperglycemia result is “prevented”.
